Results published in patent US12209087B2, “AKT1 modulators” (Alterome Therapeutics, Inc., priority 2022, dated 2025).

These compounds were tested against T1, full length AKT E17K (Homo sapiens, UniProt P31749, E17K) (assay: NanoBRET Target Engagement (TE) Assay). Settings: competitive displacement of tracer in cells, read-out: AKT1 E17K IC50.
T1 construct: host or cells: HEK-293 (ATCC CRL-1573)
Assay type: cell-based
Method in brief: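 Compound and tracer incubated 2 h before luminescence at donor 450 nm and acceptor 600 nm, with extracellular signal inhibited. EC50 by sigmoidal variable-slope regression.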

T1 sequence (P31749 whole entry E17K): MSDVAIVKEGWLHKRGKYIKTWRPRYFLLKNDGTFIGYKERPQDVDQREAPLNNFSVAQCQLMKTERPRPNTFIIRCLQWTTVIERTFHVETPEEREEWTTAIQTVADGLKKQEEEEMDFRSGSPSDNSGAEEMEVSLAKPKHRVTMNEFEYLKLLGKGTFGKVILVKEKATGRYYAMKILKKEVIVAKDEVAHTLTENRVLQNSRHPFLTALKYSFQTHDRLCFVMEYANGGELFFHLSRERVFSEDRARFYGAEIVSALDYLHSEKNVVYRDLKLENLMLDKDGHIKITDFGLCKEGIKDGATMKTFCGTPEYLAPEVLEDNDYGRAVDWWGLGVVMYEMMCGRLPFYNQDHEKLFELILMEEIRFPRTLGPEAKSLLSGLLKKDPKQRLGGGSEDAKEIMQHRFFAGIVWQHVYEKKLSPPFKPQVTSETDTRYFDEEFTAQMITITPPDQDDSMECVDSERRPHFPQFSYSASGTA

**Q.** [2H]C([2H])(F)n1cc(-c2ccc3nc(-c4cccnc4N)n(-c4ccc(CN5CCC(Nc6ccnc(C#N)n6)CC5)cc4)c3n2)ccc1=O [Example 624, 4-((1-(4-(2-(2-Aminopyridin-3-yl)-5-(1-(fluoromethyl-d2)-6-oxo-1,6-dihydropyridin-3-yl)-3H-imidazo[4,5-b]pyridin-3-yl)benzyl)piperidin-4-yl)amino)pyrimidine-2-carbonitrile] was tested. Which IC50 did it give?
**A.** 15 to 60 nM

**Q.** For [2H]c1nc(OC([2H])([2H])[2H])ccc1-c1ccc2nc(-c3cccnc3N)n(-c3ccc(CN4CCC(Nc5ccnc(C#N)n5)CC4)cc3)c2n1 [Example 597, 4-((1-(4-(2-(2-aminopyridin-3-yl)-5-(6-(methoxy-d3)pyridin-3-yl-2-d)-3H-imidazo[4,5-b]pyridin-3-yl)benzyl)piperidin-4-yl)amino)pyrimidine-2-carbonitrile], which IC50 is on record?
**A.** < 15 nM

**Q.** For COc1cc(-c2ccc3nc(-c4cccnc4N)n(-c4ccc(CN5CCC(Nc6ccnc(C#N)n6)CC5)cc4)c3n2)ccc1F [Example 439, 4-((1-(4-(2-(2-Aminopyridin-3-yl)-5-(4-fluoro-3-methoxyphenyl)-3H-imidazo[4,5-h]pyridin-3-yl)benzyl)piperidin-4-yl)amino)pyrimidine-2-carbonitrile], which IC50 is on record?
**A.** < 15 nM

**Q.** For N#CCn1ncc(-c2ccc3nc(-c4cccnc4N)n(-c4ccc(CN5CCC(Nc6ccnc(C#N)n6)CC5)cc4)c3n2)n1 [Example 626, 4-((1-(4-(2-(2-Aminopyridin-3-yl)-5-(2-(cyanomethyl)-2H-1,2,3-triazol-4-yl)-3H-imidazo[4,5-b]pyridin-3-yl)benzyl)piperidin-4-yl)amino)pyrimidine-2-carbonitrile], which IC50 is on record?
**A.** < 15 nM

**Q.** How did the IC50 turn out when Cc1nc2c(cc1C#N)nc(-c1cccnc1N)n2-c1ccc(CN2CCC(Nc3ccnc(C#N)n3)CC2)cc1 [Example 550, 2-(2-Aminopyridin-3-yl)-3-(4-((4-((2-cyanopyrimidin-4-yl)amino)piperidin-1-yl)methyl)phenyl)-5-methyl-3H-imidazo[4,5-b]pyridine-6-carbonitrile] was run?
**A.** < 15 nM

**Q.** Which IC50 does the source give for Cc1ccc(-c2ccc3nc(-c4cccnc4N)n(-c4ccc(CN5CCC(Nc6ccnc(C#N)n6)CC5)cc4)c3n2)cn1 [Example 534, 4-((1-(4-(2-(2-Aminopyridin-3-yl)-5-(6-methylpyridin-3-yl)-3H-imidazo[4,5-b]pyridin-3-yl)benzyl)piperidin-4-yl)amino)pyrimidine-2-carbonitrile] here?
**A.** < 15 nM

**Q.** Which IC50 does the source give for N#Cc1nccc(NC2CCN(Cc3ccc(-n4c(-c5cccnc5N)nc5ccc(N6CCC6)nc54)cc3)CC2)n1 [Example 460, 4-((1-(4-(2-(2-Aminopyridin-3-yl)-5-(azetidin-1-yl)-3H-imidazo[4,5-b]pyridin-3-yl)benzyl)piperidin-4-yl)amino)pyrimidine-2-carbonitrile] here?
**A.** < 15 nM

**Q.** For N#Cc1nccc(NC2CCN(Cc3ccc(-n4c(-c5cccnc5N)nc5ccc(-c6ccc(F)cc6Cl)nc54)cc3)CC2)n1 [Example 498, 4-((1-(4-(2-(2-Aminopyridin-3-yl)-5-(2-chloro-4-fluorophenyl)-3H-imidazo[4,5-b]pyridin-3-yl)benzyl)piperidin-4-yl)amino)pyrimidine-2-carbonitrile], which IC50 is on record?
**A.** 15 to 60 nM

**Q.** With CN1CCN(c2ccc3nc(-c4cccnc4N)n(-c4ccc(CN5CCC(Nc6ccnc(C#N)n6)CC5)cc4)c3n2)CCC1=O [Example 346, 4-((1-(4-(2-(2-Aminopyridin-3-yl)-5-(4-methyl-5-oxo-1,4-diazepan-1-yl)-3H-imidazo[4,5-b]pyridin-3-yl)benzyl)piperidin-4-yl)amino)pyrimidine-2-carbonitrile] as the compound, how does the IC50 read?
**A.** 60 to 600 nM

**Q.** Which IC50 does the source give for N#Cc1ccnc(N2CCN(Cc3ccc(-n4c(-c5cccnc5N)nc5ccc(-c6ccc(Cl)cc6)nc54)cc3)CC2)n1 [Example 343, 2-(4-(4-(2-(2-Aminopyridin-3-yl)-5-(4-chlorophenyl)-3H-imidazo[4,5-b]pyridin-3-yl)benzyl)piperazin-1-yl)pyrimidine-4-carbonitrile] here?
**A.** 60 to 600 nM

Same assay, conditions: competitive tracer displacement in living cells, read-out: AKT1 E17K IC50

**Q.** Which IC50 does the source give for N#Cc1nc2cc(F)cc(C(=O)NCc3ccc(-n4c(-c5cccnc5N)nc5cccnc54)cc3)c2s1 [Example 173, N-(4-(2-(2-aminopyridin-3-yl)-3H-imidazo[4,5-b]pyridin-3-yl)benzyl)-2-cyano-5-fluorobenzo[d]thiazole-7-carboxamide] here?
**A.** < 15 nM

**Q.** Which IC50 does the source give for C[C@@H]1CN(Cc2ccc(-n3c(-c4cccnc4N)nc4ccc(-c5ccccc5)nc43)cc2)CCN1c1ncnc(C#N)n1 [Example 273, (R)-4-(4-(4-(2-(2-Aminopyridin-3-yl)-5-phenyl-3H-imidazo[4,5-b]pyridin-3-yl)benzyl)-2-methylpiperazin-1-yl)-1,3,5-triazine-2-carbonitrile] here?
**A.** < 15 nM

**Q.** How did the IC50 turn out when N#Cc1ccncc1C(=O)N1CCN(Cc2ccc(-n3c(-c4cccnc4N)nc4ccc(-c5ccccc5)nc43)cc2)CC1 [Example 145, 3-(4-(4-(2-(2-Aminopyridin-3-yl)-5-phenyl-3H-imidazo[4,5-b]pyridin-3-yl)benzyl)piperazine-1-carbonyl)isonicotinonitrile] was run?
**A.** 600 to 10000 nM

**Q.** Which IC50 does the source give for N#Cc1cc(C(=O)N2CCN(Cc3ccc(-n4c(-c5cccnc5N)nc5ccc(-c6ccccc6)nc54)cc3)CC2)ccn1 [Example 172, 4-(4-(4-(2-(2-Aminopyridin-3-yl)-5-phenyl-3H-imidazo[4,5-b]pyridin-3-yl)benzyl)piperazine-1-carbonyl)picolinonitrile] here?
**A.** 15 to 60 nM

**Q.** For N#Cc1cc(NC2CCN(Cc3ccc(-n4c(-c5cccnc5N)nc5ccc(-c6ccccc6Cl)nc54)cc3)CC2)ncn1 [Example 307, 6-((1-(4-(2-(2-Aminopyridin-3-yl)-5-(2-chlorophenyl)-3H-imidazo[4,5-b]pyridin-3-yl)benzyl)piperidin-4-yl)amino)pyrimidine-4-carbonitrile], which IC50 is on record?
**A.** 60 to 600 nM

**Q.** N#Cc1cccc(N2CCN(Cc3ccc(-n4c(-c5cccnc5N)nc5ccc(-c6ccccc6)nc54)cc3)CC2)n1 [Example 83, 6-(4-(4-(2-(2-Aminopyridin-3-yl)-5-phenyl-3H-imidazo[4,5-b]pyridin-3-yl)benzyl)piperazin-1-yl)picolinonitrile] was tested. Which IC50 did it give?
**A.** 60 to 600 nM

**Q.** With N#Cc1ccnc(NC2CCN(Cc3ccc(-n4c(-c5cccnc5N)nc5cccnc54)cc3)CC2)n1 [Example 77, 2-((1-(4-(2-(2-Aminopyridin-3-yl)-3H-imidazo[4,5-b]pyridin-3-yl)benzyl)piperidin-4-yl)amino)pyrimidine-4-carbonitrile] as the compound, how does the IC50 read?
**A.** 60 to 600 nM

**Q.** Which IC50 does the source give for N#Cc1cnnc(NC2CCN(Cc3ccc(-n4c(-c5cccnc5N)nc5cccnc54)cc3)CC2)c1 [Example 51, 6-((1-(4-(2-(2-Aminopyridin-3-yl)-3H-imidazo[4,5-b]pyridin-3-yl)benzyl)piperidin-4-yl)amino)pyridazine-4-carbonitrile] here?
**A.** 600 to 10000 nM

**Q.** How did the IC50 turn out when N#Cc1cnnc(N2CCN(Cc3ccc(-n4c(-c5cccnc5N)nc5cccnc54)cc3)CC2)c1 [Example 22, 6-(4-(4-(2-(2-Aminopyridin-3-yl)-3H-imidazo[4,5-b]pyridin-3-yl)benzyl)piperazin-1-yl)pyridazine-4-carbonitrile] was run?
**A.** 600 to 10000 nM

**Q.** With N#Cc1cncc(NC2CCN(Cc3ccc(-n4c(-c5cccnc5N)nc5cccnc54)cc3)CC2)n1 [Example 76, 6-((1-(4-(2-(2-Aminopyridin-3-yl)-3H-imidazo[4,5-b]pyridin-3-yl)benzyl)piperidin-4-yl)amino)pyrazine-2-carbonitrile] as the compound, how does the IC50 read?
**A.** 600 to 10000 nM
